In patent US20060019268A1, “Molecular markers of cisplatin resistance in cancer and uses thereof” (Research Development Foundation, priority 2004, published 2006):

Assays:
UCI 107 cells = experiment: Colony formation (clonogenic) assay, cisplatin sensitivity; format: cell-based, human; conditions: parental UCI 107 cells, continuous drug exposure
Method: (§1) Cells and culture. Six human ovarian carcinoma cell lines (2008, A2780, HEY, IGROV-1, KF28 and UCI 107) were used in this study. Sublines stably resistant to DDP (2008/C13*5.25, A2780/CP70, HEY C2, IGROV-1/CP, KFr13 and UCI CPR) had been prepared from each parental line by repeated in vitro exposure to DDP as previously described (Mishima et al., 2002). All cell lines were maintained in drug-free RPMI-1640 medium (GIBCO, Inc.) with 10% fetal calf serum (GIBCO, Inc.) at 37° C. in a humidified atmosphere containing 5% CO2. The degree of resistance of each subline was determined at the time RNA was harvested using a clonogenic assay with continuous drug exposure as previously described (Mishima et al., 2002).
(§2) Cisplatin sensitivity. Colony formation assays were used to determine the sensitivity of the 6 pairs of DDP-sensitive and resistant cell lines to the cytotoxic effect of DDP.

KFr13 cells = experiment: as above; format: cell-based, human
Method: as §1, §2

HEY cells = experiment: as above; format: cell-based, human; conditions: parental HEY cells, continuous drug exposure
Method: as §1, §2

UCI CPR cells = experiment: as above; format: cell-based, human
Method: as §1, §2

KF28 cells = experiment: as above; format: cell-based, human; conditions: parental KF28 cells, continuous drug exposure
Method: as §1, §2

2008 cells = experiment: as above; format: cell-based, human; conditions: parental 2008 cells, continuous drug exposure
Method: as §1, §2

IGROV-1/CP cells = experiment: as above; format: cell-based, human
Method: as §1, §2

A2780 cells = experiment: as above; format: cell-based, human; conditions: parental A2780 cells, continuous drug exposure
Method: as §1, §2

2008/C13*5.25 cells = experiment: as above; format: cell-based, human
Method: as §1, §2

HEY C2 cells = experiment: as above; format: cell-based, human
Method: as §1, §2

IGROV-1 cells = experiment: as above; format: cell-based, human; conditions: parental IGROV-1 cells, continuous drug exposure
Method: as §1, §2

A2780/CP70 cells = experiment: as above; format: cell-based, human
Method: as §1, §2

[1] = system: cells transfected with a metallothionein gene; conditions: cited from earlier work
[2] = system: cells transfected with the c-myc gene; conditions: cited from earlier work

Q: Which results are given for `N.N.[Cl][Pt][Cl]` [Cisplatin, cis-diamminedichloroplatinum]?
A: IC50 (UCI 107 cells): 1000 nM; Fold-resistant (ratio of IC50 values) (KFr13 cells; KFr13 vs KF28): 2.2 fold; IC50 (KFr13 cells; resistant KFr13 cells, colony formation, continuous drug exposure): 400 nM; IC50 (HEY cells): 760 nM; Fold-resistant (ratio of IC50 values) (UCI CPR cells; UCI CPR vs UCI 107): 8 fold; IC50 (UCI CPR cells; resistant UCI CPR cells, colony formation, continuous drug exposure): 8000 nM; IC50 (KF28 cells): 180 nM; IC50 (2008 cells): 700 nM; Fold-resistant (ratio of IC50 values) (IGROV-1/CP cells; IGROV-1/CP vs IGROV-1): 3.6 fold; IC50 (IGROV-1/CP cells; resistant IGROV-1/CP cells, colony formation, continuous drug exposure): 1080 nM; IC50 (A2780 cells): 210 nM; Fold-resistant (ratio of IC50 values) (2008/C13*5.25 cells; 2008/C13*5.25 vs 2008): 1.6 fold; IC50 (2008/C13*5.25 cells; resistant 2008/C13*5.25 cells, colony formation, continuous drug exposure): 1100 nM; Fold-resistant (ratio of IC50 values) (HEY C2 cells; HEY C2 vs HEY): 6.1 fold; IC50 (HEY C2 cells; resistant HEY C2 cells, colony formation, continuous drug exposure): 4600 nM; IC50 (IGROV-1 cells): 300 nM; Fold-resistant (ratio of IC50 values) (A2780/CP70 cells; A2780/CP70 vs A2780): 11.9 fold; IC50 (A2780/CP70 cells; resistant A2780/CP70 cells, colony formation, continuous drug exposure): 2500 nM; level of increased resistance [1]: less than 5 fold; level of increased resistance [2]: less than 3 fold
